# Experimental data published in patent publication US8822449B2, “Substituted aminoindanes and analogs thereof, and the pharmaceutical use thereof” (Sanofi, priority 2008, dated 2014).
# Target: T1, sodium-proton exchanger of subtype 3 (NHE3) (Homo sapiens, UniProt P48764)
# T1 construct: expressed in transfected cells
# T1 sequence (P48764 26-834): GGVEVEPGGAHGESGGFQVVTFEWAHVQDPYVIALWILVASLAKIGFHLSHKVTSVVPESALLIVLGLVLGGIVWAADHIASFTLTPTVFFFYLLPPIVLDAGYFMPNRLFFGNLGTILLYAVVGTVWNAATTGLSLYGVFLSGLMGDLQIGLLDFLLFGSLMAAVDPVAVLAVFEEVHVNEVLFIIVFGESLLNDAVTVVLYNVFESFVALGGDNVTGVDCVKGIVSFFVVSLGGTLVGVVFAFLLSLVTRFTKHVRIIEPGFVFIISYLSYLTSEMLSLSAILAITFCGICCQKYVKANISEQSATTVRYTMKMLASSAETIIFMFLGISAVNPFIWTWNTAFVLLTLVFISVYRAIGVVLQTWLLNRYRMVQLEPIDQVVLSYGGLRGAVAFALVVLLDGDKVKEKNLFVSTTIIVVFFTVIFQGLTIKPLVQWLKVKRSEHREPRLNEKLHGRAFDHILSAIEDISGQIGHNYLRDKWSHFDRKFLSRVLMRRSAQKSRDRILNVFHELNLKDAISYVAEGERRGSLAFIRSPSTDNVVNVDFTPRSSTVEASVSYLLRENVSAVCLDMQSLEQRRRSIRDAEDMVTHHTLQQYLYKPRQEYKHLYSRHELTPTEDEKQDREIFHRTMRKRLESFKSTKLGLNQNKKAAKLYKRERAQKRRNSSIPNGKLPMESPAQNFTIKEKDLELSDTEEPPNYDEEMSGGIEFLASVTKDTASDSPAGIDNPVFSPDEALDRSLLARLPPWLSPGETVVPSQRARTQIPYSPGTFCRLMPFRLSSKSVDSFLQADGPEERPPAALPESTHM
# Test: Recovery of intracellular pH (pHi) after acidification in LAP1 cells stably expressing NHE3 (BCECF fluorescence, FLIPR)
# Assay type: cell-based
# Conditions: LAP1 cells stably expressing NHE3; pH recovery after acidification; range 1 is % inhibition at 10 μM; read-out: Activity range (inhibitory effect on NHE3)
IC50,inhibition at 10 µM,SMILES
< 1000 nM,–,"Cn1ccn(-c2ccc(O[C@H]3c4cc(Cl)cc(Cl)c4C[C@@H]3N3CC[C@@H](O)C3)cc2)c1=O [Example 331, 1-{4-[trans-(1S,2S)-4,6-dichloro-2-((R)-3-hydroxypyrrolidin-1-yl)indan-1-yloxy]phenyl}-3-methyl-1,3-dihydroimidazol-2-one]"
1000 to 10000 nM,–,"NCC1CCN([C@@H]2Cc3ccccc3[C@H]2Oc2ccc(Br)cc2-c2cc[nH]n2)CC1 (racemic) [Example 599, C-(1-{rac-trans-(1,2)-1-[4-bromo-2-(1H-pyrazol-3-yl)phenoxy]indan-2-yl}piperidin-4-yl)methylamine]"
1000 to 10000 nM,–,"CCN(CC)[C@@H]1Cc2ccccc2[C@H]1Oc1ccc(S(N)(=O)=O)c(Cl)c1Cl (racemic) [Example 355, 2,3-dichloro-4-(rac-trans-(1,2)-2-diethylaminoindan-1-yloxy)benzenesulfonamide]"
–,20 to 50%,"CS(=O)(=O)c1ccc(O[C@H]2c3cc(F)ccc3C[C@@H]2N2CCN(CC#N)CC2)cc1 (racemic) [Example 242, {4-[rac-trans-(1,2)-6-fluoro-1-(4-methanesulfonylphenoxy)indan-2-yl]piperazin-1-yl}acetonitrile]"
< 1000 nM,–,"COCCN1CCCN([C@H]2Cc3c(Cl)cc(Cl)cc3[C@@H]2Oc2ccc(S(C)(=O)=O)cc2)CC1 [Example 304, 1-[trans-(1S,2S)-4,6-dichloro-1-(4-methanesulfonylphenoxy)indan-2-yl]-4-(2-methoxyethyl)-[1,4]diazepane]"
–,20 to 50%,"COc1cc(O[C@H]2c3ccccc3CC[C@@H]2N2CCC[C@@H](N)C2)ccc1Br (racemic) [Example 63, (R)-1-[rac-trans-(1,2)-1-(4-bromo-3-methoxyphenoxy)-1,2,3,4-tetrahydronaphthalen-2-yl]piperidin-3-ylamine]"
1000 to 10000 nM,–,"CS(=O)(=O)c1ccc(O[C@H]2c3cc(Cl)cc(F)c3C[C@@H]2N2CC[C@@H](O)C2)cc1 [Example 108, (R)-1-[trans-(1S,2S)-6-chloro-4-fluoro-1-(4-methanesulfonylphenoxy)indan-2-yl]pyrrolidin-3-ol]"
< 1000 nM,–,"O=C1OCCN1c1ccc(Cl)c(O[C@H]2c3cc(Cl)cc(F)c3C[C@@H]2N2CC[C@@H](O)C2)c1 [Example 439, 3-{4-chloro-3-[(1S,2S)-6-chloro-4-fluoro-2-((R)-3-hydroxypyrrolidin-1-yl)indan-1-yloxy]phenyl}oxazolidin-2-one]"
1000 to 10000 nM,–,"CS(=O)(=O)c1ccc(O[C@H]2c3cc(F)cc(F)c3C[C@@H]2N2CC[C@@H](O)C2)cc1 [Example 28, (R)-1-[(1S,2S)-4,6-difluoro-1-(4-methanesulfonylphenoxy)indan-2-yl]pyrrolidin-3-ol]"
1000 to 10000 nM,–,"N[C@@H]1CCCN([C@@H]2Cc3ccccc3[C@H]2Oc2cccc3[nH]ccc23)C1 (racemic) [Example 30, (R)-1-[rac-trans-(1,2)-1-(1H-indol-4-yloxy)indan-2-yl]piperidin-3-ylamine]"
–,20 to 50%,"Cc1nnc(C)n1-c1ccc(O[C@H]2c3cc(Cl)c(Cl)cc3C[C@@H]2N2CCCC2)cc1 (racemic) [Example 498, 4-[4-(rac-trans-(1,2)-5,6-dichloro-2-pyrrolidin-1-ylindan-1-yloxy)phenyl]-3,5-dimethyl-4H-[1,2,4]triazole]"
–,20 to 50%,"CN1CCN([C@H]2Cc3c(Cl)cc(Cl)cc3[C@@H]2Oc2ccc(-n3cncn3)cc2)CC1 [Example 296, 1-[trans-(1S,2S)-4,6-dichloro-1-(4-[1,2,4]triazol-1-ylphenoxy)indan-2-yl]-4-methylpiperazine]"
–,20 to 50%,"N#Cc1cc(Cl)ccc1O[C@H]1c2ccccc2CC[C@@H]1N1CCC[C@H](N)C1 (racemic) [Example 371, 2-[rac-trans-(1,2)-2-((S)-3-aminopiperidin-1-yl)-1,2,3,4-tetrahydronaphthalen-1-yloxy]-5-chlorobenzonitrile]"
1000 to 10000 nM,–,"N[C@@H]1CCCN([C@@H]2Cc3ccccc3[C@H]2Oc2ccc(N3CCNCC3)cc2)C1 (racemic) [Example 76, (R)-1-[rac-trans-(1,2)-1-(4-piperazin-1-ylphenoxy)indan-2-yl]piperidin-3-ylamine]"
1000 to 10000 nM,–,"NS(=O)(=O)c1ccc(O[C@H]2c3cc(F)ccc3C[C@@H]2N2CCCC2)cc1 (racemic) [Example 474, 4-(rac-trans-(1,2)-6-fluoro-2-pyrrolidin-1-ylindan-1-yloxy)benzenesulfonamide]"
1000 to 10000 nM,–,"N[C@@H]1CCCN([C@@H]2Cc3ccccc3[C@H]2Oc2ccc(Cl)nc2)C1 (racemic) [Example 82, (R)-1-[rac-trans-(1,2)-1-(6-chloropyridin-3-yloxy)indan-2-yl]piperidin-3-ylamine]"
< 1000 nM,–,"Cc1cn(-c2ccc(O[C@H]3c4cc(Cl)cc(Cl)c4C[C@@H]3N3CC[C@@H](O)C3)c(F)c2)c(C)n1 [Example 727, (R)-1-{trans-(1S,2S)-4,6-Dichloro-1-[4-(2,4-dimethyl-imidazol-1-yl)-2-fluoro-phenoxy]-indan-2-yl}-pyrrolidin-3-ol]"
1000 to 10000 nM,–,"Cc1cc(O[C@@H]2c3ccccc3C[C@H]2N2C[C@H]3CNC[C@H]3C2)cc(C)c1C#N (racemic) [Example 505, 4-[rac-trans-(1,2)-2-(Hexahydropyrrolo[3,4-c]pyrrol-2-yl)indan-1-yloxy]-2,6-dimethylbenzonitrile]"
1000 to 10000 nM,–,"CC1(C)OC(=O)N(c2ccc(Cl)c(O[C@H]3c4cc(Cl)cc(F)c4C[C@@H]3N3CC[C@@H](O)C3)c2)C1=O [Example 437, 3-{4-chloro-3-[(1S,2S)-6-chloro-4-fluoro-2-((R)-3-hydroxypyrrolidin-1-yl)indan-1-yloxy]phenyl}-5,5-dimethyloxazolidine-2,4-dione]"
1000 to 10000 nM,–,"CS(=O)(=O)c1ccc(O[C@H]2c3cc(F)cc(Cl)c3C[C@@H]2N2CCCC2)cc1 (racemic) [Example 284, 1-[rac-trans-(1,2)-4-chloro-6-fluoro-1-(4-methanesulfonylphenoxy)indan-2-yl]pyrrolidine]"
–,20 to 50%,"CN1CCN(c2cc(O[C@H]3c4cc(Cl)cc(Cl)c4C[C@@H]3N3CC[C@@H](O)C3)ccc2Cl)C1=O [Example 311, 1-{2-chloro-5-[(1S,2S)-4,6-dichloro-2-((R)-3-hydroxypyrrolidin-1-yl)indan-1-yloxy]phenyl}-3-methylimidazolidin-2-one]"
< 1000 nM,–,"Cc1c(O[C@H]2c3ccccc3C[C@@H]2N2CCCC2)ccc(-n2c(C)nnc2C)c1C (racemic) [Example 488, 4-[2,3-dimethyl-4-(rac-trans-(1,2)-2-pyrrolidin-1-ylindan-1-yloxy)phenyl]-3,5-dimethyl-4H-[1,2,4]triazole]"
1000 to 10000 nM,–,"N[C@@H]1CCCN([C@@H]2Cc3ccccc3[C@H]2Oc2cccc(N3CCCCC3)c2)C1 (racemic) [Example 59, (R)-1-[rac-trans-(1,2)-1-(3-piperidin-1-ylphenoxy)indan-2-yl]piperidin-3-ylamine]"
1000 to 10000 nM,–,"CC(=O)Nc1cccc(O[C@H]2c3ccccc3C[C@@H]2N2CC[C@@H](CO)C2)c1 (racemic) [Example 680, N-{3-[rac-trans-(1,2)-2-((R)-3-hydroxymethylpyrrolidin-1-yl)indan-1-yloxy]phenyl}acetamide]"
< 1000 nM,–,"CS(=O)(=O)c1ccccc1O[C@H]1c2cc(Cl)cc(Cl)c2C[C@@H]1N1CCC[C@@H](N)C1 [Example 25, (R)-1-[(1S,2S)-4,6-dichloro-1-(2-methanesulfonylphenoxy)indan-2-yl]piperidin-3-ylamine]"
< 1000 nM,–,"N[C@@H]1CCCN([C@H]2CCc3ccccc3[C@@H]2Oc2ccc(F)cc2-c2cc[nH]n2)C1 (racemic) [Example 120, (R)-1-{rac-trans-(1,2)-1-[4-fluoro-2-(1H-pyrazol-3-yl)phenoxy]-1,2,3,4-tetrahydronaphthalen-2-yl}piperidin-3-ylamine]"
–,20 to 50%,"N[C@@H]1CCCN([C@H]2CCc3ccccc3[C@@H]2Oc2cccc(F)c2)C1 (racemic) [Example 57, (R)-1-[rac-trans-(1,2)-1-(3-fluorophenoxy)-1,2,3,4-tetrahydronaphthalen-2-yl]piperidin-3-ylamine]"
–,20 to 50%,"N[C@H]1CCCN([C@H]2CCc3ccccc3[C@@H]2Oc2ccccc2Br)C1 (racemic) [Example 151, (S)-1-[rac-trans-(1,2)-1-(2-bromophenoxy)-1,2,3,4-tetrahydronaphthalen-2-yl]piperidin-3-ylamine]"
–,20 to 50%,"Clc1cnccc1O[C@H]1c2ccccc2C[C@@H]1CN1CCOCC1 (racemic) [Example 486, 4-[1-(3-chloropyridin-4-yloxy)indan-2-ylmethyl]morpholine]"
1000 to 10000 nM,–,"CCN(CC)[C@@H]1Cc2ccccc2[C@H]1Oc1ccc2c(c1)C(C)C(=O)N2C (mixture of isomers) [Example 568, 5-(rac-trans-(1,2)-2-diethylaminoindan-1-yloxy)-1,3-dimethyl-1,3-dihydroindol-2-one]"
